# Measurements reported in ChEMBL document CHEMBL5390264, “Exploring Fatty Acid Mimetics as NR4A Ligands” (J Med Chem, 2023).
# Activity calls are given as the source filed them. No cut-off for these calls is given here.
# How the values were obtained:
# [1] = biological target: T1, Nuclear receptor subfamily 4immunitygroup A member 1 (Homo sapiens, UniProt P22736); assay: Inverse agonist activity at human Nur77 LBD transiently transfected in HEK293T cells incubated for 16 hrs by Gal4-hybrid reporter gene based Dual-glo luciferase assay; format: cell-based
# T1 sequence (P22736 whole entry, the tested form may be a part): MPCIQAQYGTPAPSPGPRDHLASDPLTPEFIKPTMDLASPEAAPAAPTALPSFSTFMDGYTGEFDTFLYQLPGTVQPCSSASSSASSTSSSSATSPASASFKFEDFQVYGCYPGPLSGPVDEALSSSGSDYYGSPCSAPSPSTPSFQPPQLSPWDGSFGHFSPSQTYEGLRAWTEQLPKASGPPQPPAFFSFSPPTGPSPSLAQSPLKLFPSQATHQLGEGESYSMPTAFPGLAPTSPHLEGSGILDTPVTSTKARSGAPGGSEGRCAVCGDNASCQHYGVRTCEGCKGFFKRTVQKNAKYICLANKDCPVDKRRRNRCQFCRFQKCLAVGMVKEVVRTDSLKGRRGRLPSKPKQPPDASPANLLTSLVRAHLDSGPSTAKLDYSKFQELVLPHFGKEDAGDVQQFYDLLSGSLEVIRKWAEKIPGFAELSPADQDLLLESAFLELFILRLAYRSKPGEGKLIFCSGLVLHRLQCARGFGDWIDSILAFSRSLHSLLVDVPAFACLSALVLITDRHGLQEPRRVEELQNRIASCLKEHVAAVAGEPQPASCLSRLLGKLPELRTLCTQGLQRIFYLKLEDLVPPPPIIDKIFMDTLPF
# [2] = biological target: T2, Nuclear receptor subfamily 4 group A member 3 (Homo sapiens, UniProt Q92570); assay: Inverse agonist activity at human NOR-1 LBD transiently transfected in HEK293T cells incubated for 16 hrs by Gal4-hybrid reporter gene based Dual-glo luciferase assay; format: cell-based
# T2 sequence (Q92570 whole entry, the tested form may be a part): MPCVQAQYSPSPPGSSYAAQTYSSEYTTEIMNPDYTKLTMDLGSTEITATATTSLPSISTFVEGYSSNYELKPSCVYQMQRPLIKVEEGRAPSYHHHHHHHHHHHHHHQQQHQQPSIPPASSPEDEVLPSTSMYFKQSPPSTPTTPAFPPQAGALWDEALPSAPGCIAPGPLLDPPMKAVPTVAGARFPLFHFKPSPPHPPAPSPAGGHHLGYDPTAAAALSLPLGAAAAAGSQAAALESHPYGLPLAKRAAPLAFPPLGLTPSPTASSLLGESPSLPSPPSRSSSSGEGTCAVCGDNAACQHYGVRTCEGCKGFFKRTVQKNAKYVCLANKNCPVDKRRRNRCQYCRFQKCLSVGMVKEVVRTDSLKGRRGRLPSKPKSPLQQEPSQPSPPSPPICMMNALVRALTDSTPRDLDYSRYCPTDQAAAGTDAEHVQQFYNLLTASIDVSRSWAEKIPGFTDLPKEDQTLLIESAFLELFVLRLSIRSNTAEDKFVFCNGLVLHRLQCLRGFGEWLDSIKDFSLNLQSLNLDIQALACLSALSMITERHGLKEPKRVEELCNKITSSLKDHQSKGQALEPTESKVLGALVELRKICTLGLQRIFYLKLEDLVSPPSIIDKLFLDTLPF
# [3] = biological target: T3, Nuclear receptor subfamily 4 group A member 2 (Homo sapiens, UniProt P43354); assay: Agonist activity at human Nurr1 LBD transiently transfected in HEK293T cells incubated for 16 hrs by Gal4-hybrid reporter gene based Dual-glo luciferase assay; format: cell-based
# T3 sequence (P43354 whole entry, the tested form may be a part): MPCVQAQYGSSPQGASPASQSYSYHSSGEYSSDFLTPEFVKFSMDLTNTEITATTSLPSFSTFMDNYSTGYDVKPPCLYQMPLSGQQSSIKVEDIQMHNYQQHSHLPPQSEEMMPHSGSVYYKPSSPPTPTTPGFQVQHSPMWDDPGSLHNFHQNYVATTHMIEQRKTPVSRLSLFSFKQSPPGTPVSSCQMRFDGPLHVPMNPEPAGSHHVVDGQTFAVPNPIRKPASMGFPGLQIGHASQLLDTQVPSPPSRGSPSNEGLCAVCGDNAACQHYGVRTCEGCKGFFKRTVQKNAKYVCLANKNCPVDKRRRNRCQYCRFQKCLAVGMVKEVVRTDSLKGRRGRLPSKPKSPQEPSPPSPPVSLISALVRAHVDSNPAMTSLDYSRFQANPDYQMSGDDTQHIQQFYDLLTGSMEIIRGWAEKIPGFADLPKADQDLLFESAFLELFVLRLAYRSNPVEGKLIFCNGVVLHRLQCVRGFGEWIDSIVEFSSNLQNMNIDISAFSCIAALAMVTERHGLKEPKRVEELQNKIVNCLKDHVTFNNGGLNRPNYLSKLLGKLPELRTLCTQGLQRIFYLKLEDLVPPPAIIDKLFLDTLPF
# [4] = biological target: T1, Nuclear receptor subfamily 4immunitygroup A member 1; assay: Modulation of human Nur77 LBD transiently transfected in HEK293T cells at 100 to 200 uM incubated for 16 hrs by Gal4-hybrid reporter gene based Dual-glo luciferase assay; format: cell-based; details: dose 100-200 µM
# [5] = biological target: T3, Nuclear receptor subfamily 4 group A member 2; assay: Binding affinity to recombinant N-terminal 6His-tagged Nurr1 LBD (362 to 598 residues) (unknown origin) expressed in Escherichia coli BL21(DE3)-R3-pRARE2 cells assessed as thermal stability by measuring change in melting temperature at 100 uM by SYPRO orange dye based differential scanning fluorimetry analysis
# [6] = biological target: T2, Nuclear receptor subfamily 4 group A member 3; assay: Modulation of human NOR-1 LBD transiently transfected in HEK293T cells at 100 to 200 uM incubated for 16 hrs by Gal4-hybrid reporter gene based Dual-glo luciferase assay; format: cell-based; details: dose 100-200 µM
# [7] = biological target: T1, Nuclear receptor subfamily 4immunitygroup A member 1; assay: Agonist activity at human Nur77 LBD transiently transfected in HEK293T cells assessed as maximal activation incubated for 16 hrs by Gal4-hybrid reporter gene based Dual-glo luciferase assay relative to control; format: cell-based; details: filed as agonist
# [8] = biological target: T1, Nuclear receptor subfamily 4immunitygroup A member 1; assay: Agonist activity at human Nur77 LBD transiently transfected in HEK293T cells incubated for 16 hrs by Gal4-hybrid reporter gene based Dual-glo luciferase assay; format: cell-based
# [9] = biological target: T2, Nuclear receptor subfamily 4 group A member 3; assay: Agonist activity at human NOR-1 LBD transiently transfected in HEK293T cells incubated for 16 hrs by Gal4-hybrid reporter gene based Dual-glo luciferase assay; format: cell-based
# [10] = biological target: T2, Nuclear receptor subfamily 4 group A member 3; assay: Agonist activity at human NOR-1 LBD transiently transfected in HEK293T cells assessed as maximal activation incubated for 16 hrs by Gal4-hybrid reporter gene based Dual-glo luciferase assay relative to control; format: cell-based; details: filed as agonist
# [11] = biological target: T3, Nuclear receptor subfamily 4 group A member 2; assay: Inverse agonist activity at human Nurr1 LBD transiently transfected in HEK293T cells incubated for 16 hrs by Gal4-hybrid reporter gene based Dual-glo luciferase assay; format: cell-based
structure (smiles),measurement,setting,value
O=C(O)c1ccccc1CCc1ccccc1,IC50,[1],> 100 µM
same,IC50,[2],> 100 µM
O=C(O)c1cccc(OCc2ccccc2Cl)c1,EC50,[3]; read-out: EC50,3 µM
CCC(Oc1cc(Cl)cc(Cl)c1)C(=O)O (stereo unspecified),Activity,[4],inactive
COc1cccc(-c2ccc(NC(=O)C3=C(C(=O)O)CCC3)c(F)c2)c1,ΔTm,[5],-0.94 °C
N#Cc1c(F)c(F)cc(C(=O)O)c1F,IC50,[1],> 100 µM
same,IC50,[2],> 100 µM
O=C(O)/C=C/c1ccc(Cl)c(Cl)c1,Activity,[6],inactive
O=C(O)c1ccc(OCc2ccc(F)cc2)cc1,EC50,[3]; read-out: EC50,12 µM
O=C(O)c1cccc(OCc2cccc(F)c2)c1,EC50,[3]; read-out: EC50,3 µM
O=C(O)c1ccc(OCc2cccc(C(F)(F)F)c2)cc1,EC50,[3]; read-out: EC50,18 µM
O=C(O)c1ccc(-c2cccc(F)c2)o1,Emax,[7],158%
same,EC50,[8],9 µM
same,EC50,[3]; read-out: EC50,6 µM
same,EC50,[9],6 µM
same,Emax,[10],148%
O=C(O)c1cccc2ccccc12 [NAPHTHOIC ACID],Emax,[7],183%
same,EC50,[8],48 µM
same,EC50,[3]; read-out: EC50,54 µM
same,EC50,[9],56 µM
same,Emax,[10],136%
Cn1nnc2c(C(=O)O)ncn2c1=O,Activity,[4],inactive
O=C(O)CN(CCO)CCO,Activity,[4],inactive
O=C(O)c1ccc(OCc2cccc(-c3ccccc3)c2)cc1,EC50,[3]; hek293t,Not Determined(Insoluble)
O=C(O)c1ccccc1C(=O)c1ccc(Cl)cc1,IC50,[1],99 µM
same,IC50,[11],> 100 µM
same,IC50,[2],111 µM
O=C(O)C(c1ccccc1)(c1ccccc1)c1ccccc1,IC50,[1],> 100 µM
same,IC50,[2],> 100 µM
CN(C)c1ccc(/N=N/c2ccccc2C(=O)O)cc1,Activity,[6],inactive
O=C(O)c1ccc(OCc2ccc(Cl)cc2)cc1,EC50,[3]; read-out: EC50,6 µM
O=C(O)c1ccnc2ccccc12,Activity,[4],inactive
CSc1nccn1-c1ccc(C(=O)O)cc1,IC50,[1],9 µM
same,IC50,[11],37 µM
same,IC50,[2],> 100 µM
O=C(O)c1cccc(OCc2ccccc2)c1,EC50,[3]; read-out: EC50,8 µM
C/C(=C\C(=O)O)c1ccc(C(F)(F)F)cc1,Emax,[7],162%
same,EC50,[8],28 µM
same,EC50,[3]; read-out: EC50,76 µM
same,EC50,[9],36 µM
same,Emax,[10],157%
O=C(O)CCC(=O)c1ccccc1,EC50,[8],> 100 µM
same,EC50,[3]; read-out: EC50,90 µM
same,EC50,[9],> 100 µM
O=C(O)c1cccc(OCc2ccc(Cl)cc2Cl)c1,EC50,[8],0.04 µM
same,EC50,[9],0.15 µM
O=C(O)c1ccc(Oc2ccccc2)cc1,Activity,[4],inactive
O=C(O)c1cccc(OCc2ccc(F)cc2)c1,EC50,[3]; read-out: EC50,19 µM
O=C(O)c1ccc(OCc2ccccc2)cc1,Emax,[7],158%
same,EC50,[8],8 µM
same,EC50,[3]; read-out: EC50,9 µM
same,EC50,[9],13 µM
same,Emax,[10],166%
COc1cc(C(=O)O)cc(OC)c1OC,Activity,[4],inactive
O=C(O)CC(c1ccccc1)c1ccccc1,Activity,[6],inactive
O=Cc1ccc(C(=O)O)cc1,Activity,[4],inactive
same,Activity,[6],inactive
COc1ccccc1CC(=O)O,Activity,[4],inactive
O=C(O)c1ccc(OCc2ccccc2Cl)cc1,EC50,[3]; read-out: EC50,0.05 µM
CCc1c(C(=O)O)cnn1-c1ccccc1,EC50,[8],> 100 µM
same,EC50,[9],73 µM
